Measured values as given in article PMC7313459, “Insights into the Mn^2+ Binding Site in the Agmatinase-Like Protein (ALP): A Critical Enzyme for the Regulation of Agmatine Levels in Mammals” (International Journal of Molecular Sciences, 2020).

Molecular target: T1, central-ALP (Rattus norvegicus, UniProt A0A8I6ASI2)
T1 construct: gene Limch1
Experiment: urea formation, colorimetric (alpha-isonitrosopropiophenone, […] nm)
Assay type: biochemical
Details: 5 mM MnCl2, 50 mM glycine-NaOH pH 9.0, 37 °C; not pre-heated

T1 sequence (A0A8I6ASI2 141-351): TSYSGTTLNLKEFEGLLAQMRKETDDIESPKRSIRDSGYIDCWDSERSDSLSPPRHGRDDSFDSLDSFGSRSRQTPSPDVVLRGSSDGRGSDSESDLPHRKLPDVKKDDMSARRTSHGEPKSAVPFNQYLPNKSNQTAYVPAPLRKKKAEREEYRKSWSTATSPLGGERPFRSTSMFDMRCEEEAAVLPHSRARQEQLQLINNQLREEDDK

Km: 1200 ± 370 µM
Compound: N=C(N)NCCCCN [agmatine, 1-amino-4-guanidinobutane]
